Where “and” joins values, the source holds several entries; their conditions need not be identical. Identical values can stand only once. Square brackets hold non-standard residues; d marks the D form. Peptide text beside a SMILES is read from it. Ac5c = NC1(C(=O)O)CCCC1
System: Swiss mice, Sarcoma 180 sc, mean tumor weight T/C
Assay: NCI In Vivo Anticancer Drug Screen. Data for tumor model Sarcoma 180 (subcutaneous) in Swiss mice
Conditions: endpoint: mean tumor weight, higher = larger tumour
Protocol: The antitumor activity of compounds was measured in mice bearing transplantable tumors. Survival or tumor size were measured and the results are expressed as the measurement made in the treated group (T) divided by the measurement made in the vehicle treated control group (C). The tumor model used in this assay is Sarcoma 180 (subcutaneous) in Swiss mice

[1] = dose: 100.0 mg/kg/injection, schedule: Q01DX007 (ip), vehicle: saline

In the case of CS(=O)(=O)OCCCCCOS(C)(=O)=O, the T/C (dose: 16.5 mg/kg/injection, schedule: Q#A X014 (ip), vehicle: methylcellulose (MC)) is reported as 54 % of control and 65 % of control, the T/C (dose: 37.5 mg/kg/injection, schedule: Q#A X014 (ip), vehicle: methylcellulose (MC)) is reported as 54 % of control and the T/C (dose: 56.5 mg/kg/injection, schedule: Q#A X014 (ip), vehicle: methylcellulose (MC)) is reported as 9 % of control.
COCCOC1=C(N2CC2)C(=O)C(OCCOC)=C(N2CC2)C1=O was tested, and the T/C (dose: 0.89 mg/kg/injection, schedule: Q01DX007 (sc), vehicle: saline) was 61 % of control, the T/C (dose: 1.3 mg/kg/injection, schedule: Q01DX007 (sc), vehicle: saline) was 72 % of control and the T/C (dose: 1.6 mg/kg/injection, schedule: Q01DX007 (oral), vehicle: saline) was 95 % of control. The T/C (dose: 2.0 mg/kg/injection, schedule: Q01DX001 (ip), vehicle: saline) was 97 % of control, the T/C (dose: 2.0 mg/kg/injection, schedule: Q01DX006 (iv), vehicle: saline) was 71 % of control and the T/C (dose: 2.0 mg/kg/injection, schedule: Q01DX007 (im), vehicle: saline) was 59 % of control. For the same compound, the T/C (dose: 2.0 mg/kg/injection, schedule: Q01DX007 (ip), vehicle: saline) was 56 % of control, the T/C (dose: 2.0 mg/kg/injection, schedule: Q01DX007 (sc), vehicle: saline) was 45 % of control and the T/C (dose: 2.0 mg/kg/injection, schedule: Q03DX003 (ip), vehicle: saline) was 64 % of control. The T/C (dose: 2.4 mg/kg/injection, schedule: Q01DX007 (oral), vehicle: saline) was 75 % of control, the T/C (dose: 3.0 mg/kg/injection, schedule: Q01DX001 (ip), vehicle: saline) was 48 % of control and the T/C (dose: 3.0 mg/kg/injection, schedule: Q01DX006 (iv), vehicle: saline) was 48 % of control. For the same compound, the T/C (dose: 3.0 mg/kg/injection, schedule: Q01DX007 (im), vehicle: saline) was 59 % of control, the T/C (dose: 3.0 mg/kg/injection, schedule: Q01DX007 (ip), vehicle: saline) was 37 % of control and the T/C (dose: 3.0 mg/kg/injection, schedule: Q01DX007 (sc), vehicle: saline) was 30 % of control. For the same compound, the T/C (dose: 3.0 mg/kg/injection, schedule: Q03DX003 (ip), vehicle: saline) was 50 % of control, the T/C (dose: 3.6 mg/kg/injection, schedule: Q01DX007 (oral), vehicle: saline) was 73 % of control and the T/C (dose: 4.0 mg/kg/injection, schedule: Q01DX006 (iv), vehicle: saline) was 21 % of control. For the same compound, the T/C (dose: 4.0 mg/kg/injection, schedule: Q03DX003 (ip), vehicle: saline) was 51 % of control, the T/C (dose: 5.3 mg/kg/injection, schedule: Q01DX007 (oral), vehicle: saline) was 38 % of control and the T/C (dose: 6.0 mg/kg/injection, schedule: Q01DX001 (ip), vehicle: saline) was 83 % of control. For the same compound, the T/C (dose: 6.0 mg/kg/injection, schedule: Q03DX003 (ip), vehicle: saline) was 33 % of control, the T/C (dose: 8.0 mg/kg/injection, schedule: Q01DX007 (oral), vehicle: saline) was 34 % of control and the T/C (dose: 12.0 mg/kg/injection, schedule: Q01DX001 (ip), vehicle: saline) was 32 % of control.
CC12CCC3C(CCC4CC=CCC43C)C1CCC2=O (stereo unspecified) was tested, and the T/C (dose: 31.0 mg/kg/injection, schedule: Q01DX007 (sc), vehicle: steriod suspending solution) was 102 % of control, the T/C (dose: 62.5 mg/kg/injection, schedule: Q01DX007 (sc), vehicle: steriod suspending solution) was 105 % of control and the T/C (dose: 125.0 mg/kg/injection, schedule: Q01DX007 (sc), vehicle: steriod suspending solution) was 107 % of control and 123 % of control. For the same compound, the T/C (dose: 250.0 mg/kg/injection, schedule: Q01DX007 (sc), vehicle: steriod suspending solution) was 95 % of control and 96 % of control.
For COc1ccc2c(=O)cc(-c3ccccc3)n(C)c2c1, the T/C (dose: 50.0 mg/kg/injection, schedule: Q01DX007 (ip), vehicle: saline) was 68 % of control, the T/C [1] was 110 % of control and the T/C (dose: 200.0 mg/kg/injection, schedule: Q01DX007 (ip), vehicle: saline) was 109 % of control. For the same compound, the T/C (dose: 400.0 mg/kg/injection, schedule: Q01DX007 (ip), vehicle: saline) was 76 % of control.
In the case of CCCCCCC(=O)NC1=C(N2CC2)C(=O)C(NC(=O)CCCCCC)=C(N2CC2)C1=O, the T/C (dose: 27.75 mg/kg/injection, schedule: Q#A X014 (ip), vehicle: methylcellulose (MC)) is reported as 42 % of control and 50 % of control and 56 % of control, the T/C (dose: 41.5 mg/kg/injection, schedule: Q#A X014 (ip), vehicle: methylcellulose (MC)) is reported as 38 % of control and 50 % of control and 53 % of control and the T/C (dose: 62.5 mg/kg/injection, schedule: Q#A X014 (ip), vehicle: methylcellulose (MC)) is reported as 31 % of control.
With O=c1cccc2n1CC1CNC[C@H]2C1 the T/C (dose: 0.78 mg/kg/injection, schedule: Q01DX007 (ip), vehicle: saline) was 92 % of control, the T/C (dose: 1.56 mg/kg/injection, schedule: Q01DX007 (ip), vehicle: saline) was 97 % of control and the T/C (dose: 3.13 mg/kg/injection, schedule: Q01DX007 (ip), vehicle: saline) was 62 % of control and 87 % of control. The T/C (dose: 6.25 mg/kg/injection, schedule: Q01DX007 (ip), vehicle: saline) was 64 % of control.
With Cc1ncc(CO)c(C)c1O the T/C (dose: 25.25 mg/kg/injection, schedule: Q01DX007 (ip), vehicle: carboxymethylcellulose (CMC)) was 102 % of control, the T/C (dose: 27.5 mg/kg/injection, schedule: Q01DX007 (ip), vehicle: carboxymethylcellulose (CMC)) was 77 % of control and the T/C (dose: 50.5 mg/kg/injection, schedule: Q01DX007 (ip), vehicle: carboxymethylcellulose (CMC)) was 102 % of control. For the same compound, the T/C (dose: 55.0 mg/kg/injection, schedule: Q01DX007 (ip), vehicle: carboxymethylcellulose (CMC)) was 54 % of control, the T/C (dose: 101.0 mg/kg/injection, schedule: Q01DX007 (ip), vehicle: carboxymethylcellulose (CMC)) was 84 % of control and the T/C (dose: 110.0 mg/kg/injection, schedule: Q01DX007 (ip), vehicle: carboxymethylcellulose (CMC)) was 53 % of control. For the same compound, the T/C (dose: 202.0 mg/kg/injection, schedule: Q01DX007 (ip), vehicle: carboxymethylcellulose (CMC)) was 71 % of control.
With NCC(=O)NC1(C(=O)O)CCCC1 (H-Gly-[Ac5c]-OH) the T/C (dose: 66.0 mg/kg/injection, schedule: Q01DX007 (ip), vehicle: saline) was 57 % of control, the T/C [1] was 103 % of control and the T/C (dose: 150.0 mg/kg/injection, schedule: Q01DX007 (ip), vehicle: saline) was 45 % of control. The T/C (dose: 225.0 mg/kg/injection, schedule: Q01DX007 (ip), vehicle: saline) was 47 % of control.
With CC(=O)N[C@H]1CC[C@H]2[C@@H]3CCC4=CC(=O)CC[C@]4(C)[C@H]3CC[C@]12C the T/C (dose: 5.0 mg/kg/injection, schedule: Q#A X014 (sc), vehicle: steriod suspending solution) was 105 % of control, the T/C (dose: 50.0 mg/kg/injection, schedule: Q#A X014 (sc), vehicle: steriod suspending solution) was 94 % of control and the T/C (dose: 100.0 mg/kg/injection, schedule: Q#A X014 (sc), vehicle: steriod suspending solution) was 78 % of control.
